These results are taken from publication PMC12495412, “Coumarin/nitrogen-bearing heterocyclic hybrid-loaded electrospun PMMA/PVP nanofibrous scaffolds for accelerating topical wound healing rates: synthesis and in vitro bio-evaluation” (RSC Advances, 2025).

The structures appear in SMILES notation. ≈ marks a conversion by molar mass, not a printed value. Where “and” joins values, the source holds several entries; their conditions need not be identical. Equal values may be shown once.

Data set [1] has as its system A549 cells. Put plainly: MTT anticancer assay. Type of data set: cell-based, human. The settings on record: Homo sapiens, A549, lung carcinoma cells, 48 h. The source says:
(§1) MTT assay: the normal cell line (Wi-38), colon cancer (Caco-2), lung cancer (A549), and breast cancer (MDA) cell lines were sourced from ATCC, USA. All different cell lines were cultivated and preserved in DMEM medium (SERANA, Germany), accompanied by 10% FBS (Gibco, USA) and 1% Pen/Strep solution (Lonza, USA). The newly prepared derivatives at various doses were considered for their anticancer activity and their safety on normal cells, applying MTT (3-[4, 5-dimethylthiazol]-2, 5-diphenyltetrazolium bromide) methods.[22] At first, all normal and cancer cell lines (1.0 ×10^4) were inoculated in 4 antiseptic 96-well tissue culture microplates and incubated for 24 h in a CO2 incubator. After cell attachments, the prepared derivatives were added to both normal Wi-38 cells at diverse concentrations of (6.25–200 μg mL^−1, 2-fold) and cancer cells at different concentrations of (3.125–100 μg mL^−1, 2-fold) in triplicate and incubated for another 48 h at 37 °C in a CO2 incubator with an adjusted concentration of 5%. After that, the treated cells were cleaned three times with PBS to remove debris and dead cells. Next, 200 μL of 0.5 mg mL^−1 MTT dye solution in PBS was mixed in each well, and the cells were further kept for 3 h at 37 °C in a 5% CO2 incubator. After that, MTT was removed and 200 μL of DMSO was added to each well. The optical density (OD) was recorded at 570 nm via a microplate reader (B.M.G. LabTech, Germany). Basic cells (untreated) were utilized as negative control cells, and 5-fluorouracil (5-FU) was included as a standard chemotherapy drug. The qualified cell viability (%) was evaluated as in equation (eqn (1)):1 Relative cell viability (%) = […] A1 is the OD of the examined derivative, A0 is the OD of the standard, and AU is the OD of the untreated cells.
(§2) Anticancer activity assay: the anticancer effect of each derivative was assessed by evaluating the half-maximal inhibitory concentration (IC50) value via the GraphPad Prism 7.0 software. However, SI (selective index) values of each derivative were estimated by splitting the IC50 value of healthy cells by the IC50 value of malignant cells, as previously reported.[23] The effects of the created derivatives on the morphology of MDA cells were evaluated at IC50 doses and captured by phase-contrast microscopy (Olympus, Germany) in comparison to untreated control cells.
In general terms: Tetrazolium dyes change colour on reduction, which living cells bring about.

The subject of the next data set is MDA cells. Put plainly: MTT anticancer assay. The format is cell-based, human. As to conditions: Homo sapiens, Breast carcinoma cell, 48 h.
Description: as §1, §2

The test system of another data set is S. mutans. Put plainly: Agar-well diffusion of synthesized compounds. The format is cell-based, Streptococcus mutans ATCC 25175. As to conditions: Streptococcus mutans, 100 μL of 10 mg mL^−1 per well, 24 h, 37 °C. The source says:
(§3) The antimicrobial activity of the prepared compounds was estimated through an agar-well diffusion method as adapted from the modified Kirby–Bauer protocol.[24] In this test, microbial pathogens were applied, including Staphylococcus aureus ATCC 25923 (S. aureus), Streptococcus mutans ATCC 25175 (S. mutans), Bacillus cereus ATCC 19637 (B. cereus), Bacillus aureus ATCC 25923 (B. aureus), Bacillus epidermidis ATCC 14990 (B. epidermidis), and Bacillus subtilis ATCC 11774 (B. subtilis) as Gram-positive bacteria, and Pseudomonas aeruginosa ATCC 27853 (P. aeruginosa), Klebsiella pneumonia ATCC 13883 (K. pneumonia), and Salmonella typhimurium ATCC 14028 (S. typhimurium), Salmonella pneumoniae ATCC 10031(S. pneumoniae), Escherichia coli ATCC 10536 (E. coli), and Salmonella paratyphi ATCC 9150 (S. paratyphi) as Gram-negative bacteria. Additionally, Candida albicans (ATCC 10231), Candida krusei ATCC 6258 (C. krusei), Candida glabrata ATCC 66032 (C. glabrata), andCandida parapsilosis ATCC 22019 (C. parapsilosis) were applied as models of unicellular fungi. The pre-inoculation cultures of the pathogens were prepared on Muller–Hinton broth and cultivated for 24 h at 37 °C. The agar-well test was prepared on Muller–Hinton agar with 100 μL of each pathogen pre-culture (0.5 McFarland conc.) and uniformly distributed on the plate surface. Under aseptic conditions, six wells were created on the agar surface using a sterile corkborer (9 mm). To each well, 100 μL of the prepared compound (10 mg mL^−1) was separately inserted into each plate. All plates were incubated for 24 h at 37 °C; the established inhibition zones (Halo-zones) surrounding the wells indicated positive antimicrobial activity and were stated as the radius of the inhibition zone (mm).

The next data set deals with P. aeruginosa. In words: Agar-well diffusion of synthesized compounds. Type of data set: cell-based, Pseudomonas aeruginosa ATCC 27853. The settings on record: Pseudomonas aeruginosa, 100 μL of 10 mg mL^−1 per well, 24 h, 37 °C.
Description: as §3, with “Under aseptic conditions, six wells were created on the agar surface using a sterile corkborer (9 mm). To each well, 100 μL of the prepared compound (10 mg mL^−1) was separately inserted into each plate. All plates were incubated for 24 h at 37 °C; the established inhibition zones (Halo-zones) surrounding the wells indicated positive antimicrobial activity and were stated as the radius of the inhibition zone (mm).” left out
(A growth-free zone around the sample is the usual read-out of agar diffusion tests.)

The test system of a further data set is Wi-38 cells. In words: MTT cytotoxicity assay, normal cells. Type of data set: cell-based. The settings on record: WI-38, normal human lung fibroblast cells, 48 h.
Description: as §1, §2

The next data set has as its system K. pneumonia. In words: Agar-well diffusion of synthesized compounds. The format is cell-based, Klebsiella pneumonia ATCC 13883. As to conditions: Klebsiella pneumoniae, 100 μL of 10 mg mL^−1 per well, 24 h, 37 °C.
Description: as §3, with “Under aseptic conditions, six wells were created on the agar surface using a sterile corkborer (9 mm). To each well, 100 μL of the prepared compound (10 mg mL^−1) was separately inserted into each plate. All plates were incubated for 24 h at 37 °C; the established inhibition zones (Halo-zones) surrounding the wells indicated positive antimicrobial activity and were stated as the radius of the inhibition zone (mm).” left out

The test system of a further data set is Caco-2 cells. In words: MTT anticancer assay. Type of data set: cell-based. The settings on record: for IC50: Homo sapiens, Caco-2, colon carcinoma cells, MTT, 48 h; for SI Caco-2: IC50 Wi-38 / IC50 Caco-2.
Description: as §1, §2

In a further data set the test system is all applied pathogens. In words: Agar-well diffusion of synthesized compounds, whole panel. Type of data set: cell-based.
Description: as §3

In the next data set the test system is S. typhimurium. In words: Agar-well diffusion of synthesized compounds. Type of data set: cell-based, Salmonella typhimurium ATCC 14028. The settings on record: Salmonella enterica, 100 μL of 10 mg mL^−1 per well, 24 h, 37 °C.
Description: as §3, with “Under aseptic conditions, six wells were created on the agar surface using a sterile corkborer (9 mm). To each well, 100 μL of the prepared compound (10 mg mL^−1) was separately inserted into each plate. All plates were incubated for 24 h at 37 °C; the established inhibition zones (Halo-zones) surrounding the wells indicated positive antimicrobial activity and were stated as the radius of the inhibition zone (mm).” left out

In another data set the test system is S. aureus. Put plainly: Agar-well diffusion of synthesized compounds. The settings on record: Staphylococcus aureus, 100 μL of 10 mg mL^−1 per well, 24 h, 37 °C. Type of data set: cell-based, Staphylococcus aureus ATCC 25923.
Description: as §3, with “Under aseptic conditions, six wells were created on the agar surface using a sterile corkborer (9 mm). To each well, 100 μL of the prepared compound (10 mg mL^−1) was separately inserted into each plate. All plates were incubated for 24 h at 37 °C; the established inhibition zones (Halo-zones) surrounding the wells indicated positive antimicrobial activity and were stated as the radius of the inhibition zone (mm).” left out

Data set [2] has as its system A549 cells. In words: Wound healing scratch (anti-migration) assay. The settings on record: IC50 doses, 48 h. Type of data set: cell-based, human. As to the method:
To assess the anti-migration inhibition capability of newly synthesized derivatives, a wound healing technique was employed. A549 cells were planted in 12-well plates and kept alive at 37 °C until they achieved 80–90% fluency. The cell monolayers were smashed with a sterile tip and exposed to the prepared derivatives at IC50 doses. At 0 and 48 h of treatment, the wound closure area was captured and calculated by imaging analysis with the Cell-Sens software (Olympus, Japan).

For the compound `O=C(Nc1ccc(Nc2ccnc3cc(Cl)ccc23)cc1)c1cc2ccccc2oc1=O` [Compound A, N-(4-((7-chloroquinolin-4-yl)amino)phenyl)-2-oxo-2H-chromene-3-carboxamide], the IC50 – broadly, the concentration that gives 50% inhibition – with A549 cells [1] is 11.5 ± 1.75 µg/mL (≈ 26 µM); with MDA cells, 5.46 ± 0.27 µg/mL (≈ 12.4 µM); in the data set with Wi-38 cells it was 139 ± 12 µg/mL (≈ 314 µM); with Caco-2 cells it was 9.03 ± 1.53 µg/mL (≈ 20.4 µM). Besides, the zone of inhibition at 10 mg/mL with S. mutans, in the data set with P. aeruginosa and in the data set with K. pneumonia was approximately 14 mm each time. Besides, the “SI Caco-2” value in the data set with Caco-2 cells is recorded as 15.38 ± 1.33. Besides, the “Antimicrobial activity” value in the data set with all applied pathogens is “wide-spectrum antibacterial activity”.

For `Cc1ccc(-c2nnc(Nc3ccc(NC(=O)c4cc5ccccc5oc4=O)cc3)c3ccccc23)cc1` [Compound C, 2-oxo-N-(4-((4-(p-tolyl)phthalazin-1-yl)amino)phenyl)-2H-chromene-3-carboxamide], the results for the zone of inhibition at 10 mg/mL in the data set with S. typhimurium, in the data set on S. mutans and in the data set on S. aureus were approximately 15.5 mm, approximately 17.2 mm and approximately 19.5 mm, respectively. Moreover, the half-maximal inhibitory concentration (IC50) is 12.2 ± 1.36 µg/mL (≈ 24.4 µM) in the data set on A549 cells [1], 6.06 ± 0.81 µg/mL (≈ 12.2 µM) in the data set on MDA cells, 137 ± 11.7 µg/mL (≈ 275 µM) in the data set with Wi-38 cells and 7.11 ± 1.68 µg/mL (≈ 14.3 µM) with Caco-2 cells. In the data set with A549 cells [2], the Migration inhibition is 74.45% and 79.09%. Also, the “SI Caco-2” value with Caco-2 cells turned out to be 19.25 ± 1.36. Further, the “Antimicrobial activity” value with all applied pathogens is listed as “wide-spectrum antibacterial activity”.
